Measurements: the NIST ThermoML archive (doi:10.1016/j.tca.2009.01.008)
Numbers after ± are expanded uncertainties.

Legend:
[1] = molar heat capacity at constant pressure; settings: 101.33 kPa, Liquid, Vacuum adiabatic calorimetry
[2] = molar heat capacity at constant pressure; xn = mol fraction of the nth substance listed; settings: 101 kPa, Liquid, Vacuum adiabatic calorimetry

SMILES | molar heat capacity at constant pressure ([1]; 303.15 K) [J/K/mol] | molar heat capacity at constant pressure ([1]; 313.15 K) [J/K/mol] | molar heat capacity at constant pressure ([1]; 323.15 K) [J/K/mol] | molar heat capacity at constant pressure ([1]; 333.15 K) [J/K/mol] | molar heat capacity at constant pressure ([1]; 343.15 K) [J/K/mol] | molar heat capacity at constant pressure ([1]; 353.15 K) [J/K/mol] | molar heat capacity at constant pressure ([2]; 303.15 K, x1 = 0.2) [J/K/mol] | molar heat capacity at constant pressure ([2]; 303.15 K, x1 = 0.4) [J/K/mol] | molar heat capacity at constant pressure ([2]; 303.15 K, x1 = 0.5) [J/K/mol] | molar heat capacity at constant pressure ([2]; 303.15 K, x1 = 0.6) [J/K/mol] | molar heat capacity at constant pressure ([2]; 303.15 K, x1 = 0.8) [J/K/mol] | molar heat capacity at constant pressure ([2]; 313.15 K, x1 = 0.2) [J/K/mol] | molar heat capacity at constant pressure ([2]; 313.15 K, x1 = 0.4) [J/K/mol] | molar heat capacity at constant pressure ([2]; 313.15 K, x1 = 0.5) [J/K/mol] | molar heat capacity at constant pressure ([2]; 313.15 K, x1 = 0.6) [J/K/mol] | molar heat capacity at constant pressure ([2]; 313.15 K, x1 = 0.8) [J/K/mol] | molar heat capacity at constant pressure ([2]; 323.15 K, x1 = 0.2) [J/K/mol] | molar heat capacity at constant pressure ([2]; 323.15 K, x1 = 0.4) [J/K/mol] | molar heat capacity at constant pressure ([2]; 323.15 K, x1 = 0.5) [J/K/mol] | molar heat capacity at constant pressure ([2]; 323.15 K, x1 = 0.6) [J/K/mol] | other results
CC(O)CO (centres undefined) [1,2-propanediol] | 192.8 ± 0.3 | 197 ± 0.3 | 201.3 ± 0.3 | 206 ± 0.3 | 210.6 ± 0.3 | 215.3 ± 0.3 |  |  |  |  |  |  |  |  |  |  |  |  |  |  | 
CC(O)CO (centres undefined) [1,2-propanediol] + O |  |  |  |  |  |  | 101.9 ± 0.2 | 127 ± 0.3 | 138.9 ± 0.3 | 150.3 ± 0.3 | 172.1 ± 0.3 | 103 ± 0.2 | 129.4 ± 0.3 | 141.9 ± 0.3 | 153.9 ± 0.3 | 176.4 ± 0.3 | 104.3 ± 0.2 | 132.1 ± 0.3 | 145.1 ± 0.3 | 157.7 ± 0.3 | molar heat capacity at constant pressure ([2]; 323.15 K, x1 = 0.8): 180.9 ± 0.3 J/K/mol; molar heat capacity at constant pressure ([2]; 333.15 K, x1 = 0.2): 105.8 ± 0.2 J/K/mol; molar heat capacity at constant pressure ([2]; 333.15 K, x1 = 0.4): 134.9 ± 0.3 J/K/mol; molar heat capacity at constant pressure ([2]; 333.15 K, x1 = 0.5): 148.7 ± 0.3 J/K/mol; molar heat capacity at constant pressure ([2]; 333.15 K, x1 = 0.6): 161.8 ± 0.3 J/K/mol; molar heat capacity at constant pressure ([2]; 333.15 K, x1 = 0.8): 185.8 ± 0.3 J/K/mol; molar heat capacity at constant pressure ([2]; 343.15 K, x1 = 0.2): 107.2 ± 0.3 J/K/mol; molar heat capacity at constant pressure ([2]; 343.15 K, x1 = 0.4): 137.7 ± 0.3 J/K/mol; molar heat capacity at constant pressure ([2]; 343.15 K, x1 = 0.5): 152.1 ± 0.3 J/K/mol; molar heat capacity at constant pressure ([2]; 343.15 K, x1 = 0.6): 165.8 ± 0.3 J/K/mol; molar heat capacity at constant pressure ([2]; 343.15 K, x1 = 0.8): 190.6 ± 0.3 J/K/mol; molar heat capacity at constant pressure ([2]; 353.15 K, x1 = 0.2): 108.8 ± 0.3 J/K/mol; molar heat capacity at constant pressure ([2]; 353.15 K, x1 = 0.4): 140.7 ± 0.3 J/K/mol; molar heat capacity at constant pressure ([2]; 353.15 K, x1 = 0.5): 155.6 ± 0.3 J/K/mol; molar heat capacity at constant pressure ([2]; 353.15 K, x1 = 0.6): 169.9 ± 0.3 J/K/mol; molar heat capacity at constant pressure ([2]; 353.15 K, x1 = 0.8): 195.5 ± 0.3 J/K/mol
OCCCOCCCO [4-oxa-1,7-heptanediol] | 329 ± 0.4 | 335.3 ± 0.4 | 341.5 ± 0.4 | 348.8 ± 0.4 | 355.8 ± 0.4 | 363.8 ± 0.4 |  |  |  |  |  |  |  |  |  |  |  |  |  |  | 
OCCCOCCCO [4-oxa-1,7-heptanediol] + O |  |  |  |  |  |  | 129.1 ± 0.3 | 181.8 ± 0.3 | 207.2 ± 0.3 | 231.9 ± 0.4 | 279.7 ± 0.4 | 130.8 ± 0.3 | 184.9 ± 0.3 | 210.9 ± 0.3 | 236.2 ± 0.4 | 285 ± 0.4 | 132.7 ± 0.3 | 188.2 ± 0.3 | 214.7 ± 0.3 | 240.7 ± 0.4 | molar heat capacity at constant pressure ([2]; 323.15 K, x1 = 0.8): 290.4 ± 0.4 J/K/mol; molar heat capacity at constant pressure ([2]; 333.15 K, x1 = 0.2): 135 ± 0.3 J/K/mol; molar heat capacity at constant pressure ([2]; 333.15 K, x1 = 0.4): 191.9 ± 0.3 J/K/mol; molar heat capacity at constant pressure ([2]; 333.15 K, x1 = 0.5): 219.3 ± 0.4 J/K/mol; molar heat capacity at constant pressure ([2]; 333.15 K, x1 = 0.6): 245.8 ± 0.4 J/K/mol; molar heat capacity at constant pressure ([2]; 333.15 K, x1 = 0.8): 296.6 ± 0.4 J/K/mol; molar heat capacity at constant pressure ([2]; 343.15 K, x1 = 0.2): 137.1 ± 0.3 J/K/mol; molar heat capacity at constant pressure ([2]; 343.15 K, x1 = 0.4): 195.5 ± 0.3 J/K/mol; molar heat capacity at constant pressure ([2]; 343.15 K, x1 = 0.5): 223.5 ± 0.4 J/K/mol; molar heat capacity at constant pressure ([2]; 343.15 K, x1 = 0.6): 250.8 ± 0.4 J/K/mol; molar heat capacity at constant pressure ([2]; 343.15 K, x1 = 0.8): 302.7 ± 0.4 J/K/mol; molar heat capacity at constant pressure ([2]; 353.15 K, x1 = 0.2): 139.5 ± 0.3 J/K/mol; molar heat capacity at constant pressure ([2]; 353.15 K, x1 = 0.4): 199.6 ± 0.3 J/K/mol; molar heat capacity at constant pressure ([2]; 353.15 K, x1 = 0.5): 228.3 ± 0.4 J/K/mol; molar heat capacity at constant pressure ([2]; 353.15 K, x1 = 0.6): 256.3 ± 0.4 J/K/mol; molar heat capacity at constant pressure ([2]; 353.15 K, x1 = 0.8): 309.4 ± 0.4 J/K/mol
OCCOCCO [diethylene glycol] | 248.2 ± 0.4 | 251.3 ± 0.4 | 255 ± 0.4 | 259.2 ± 0.4 | 263.8 ± 0.4 | 266.8 ± 0.4 |  |  |  |  |  |  |  |  |  |  |  |  |  |  | 
OCCOCCO [diethylene glycol] + O |  |  |  |  |  |  | 111.8 ± 0.3 | 148.7 ± 0.3 | 167.6 ± 0.3 | 184.5 ± 0.3 | 217.9 ± 0.3 | 113.5 ± 0.3 | 150.7 ± 0.3 | 169.9 ± 0.3 | 187.1 ± 0.3 | 221.2 ± 0.3 | 115.3 ± 0.3 | 153.3 ± 0.3 | 172.6 ± 0.3 | 190.3 ± 0.3 | molar heat capacity at constant pressure ([2]; 323.15 K, x1 = 0.8): 225 ± 0.3 J/K/mol; molar heat capacity at constant pressure ([2]; 333.15 K, x1 = 0.2): 117.4 ± 0.3 J/K/mol; molar heat capacity at constant pressure ([2]; 333.15 K, x1 = 0.4): 155.9 ± 0.3 J/K/mol; molar heat capacity at constant pressure ([2]; 333.15 K, x1 = 0.5): 175.5 ± 0.3 J/K/mol; molar heat capacity at constant pressure ([2]; 333.15 K, x1 = 0.6): 193.6 ± 0.3 J/K/mol; molar heat capacity at constant pressure ([2]; 333.15 K, x1 = 0.8): 229.1 ± 0.4 J/K/mol; molar heat capacity at constant pressure ([2]; 343.15 K, x1 = 0.2): 119.3 ± 0.3 J/K/mol; molar heat capacity at constant pressure ([2]; 343.15 K, x1 = 0.4): 158.7 ± 0.3 J/K/mol; molar heat capacity at constant pressure ([2]; 343.15 K, x1 = 0.5): 178.7 ± 0.3 J/K/mol; molar heat capacity at constant pressure ([2]; 343.15 K, x1 = 0.6): 197.3 ± 0.3 J/K/mol; molar heat capacity at constant pressure ([2]; 343.15 K, x1 = 0.8): 233.6 ± 0.4 J/K/mol; molar heat capacity at constant pressure ([2]; 353.15 K, x1 = 0.2): 121.7 ± 0.3 J/K/mol; molar heat capacity at constant pressure ([2]; 353.15 K, x1 = 0.4): 161.8 ± 0.3 J/K/mol; molar heat capacity at constant pressure ([2]; 353.15 K, x1 = 0.5): 182.2 ± 0.3 J/K/mol; molar heat capacity at constant pressure ([2]; 353.15 K, x1 = 0.6): 201.2 ± 0.3 J/K/mol; molar heat capacity at constant pressure ([2]; 353.15 K, x1 = 0.8): 238.5 ± 0.4 J/K/mol
OCCOCCOCCO [triethylene glycol] | 336.3 ± 0.4 | 339.5 ± 0.4 | 343.1 ± 0.4 | 347.9 ± 0.4 | 353.7 ± 0.4 | 359.3 ± 0.4 |  |  |  |  |  |  |  |  |  |  |  |  |  |  | 
OCCOCCOCCO [triethylene glycol] + O |  |  |  |  |  |  | 129.3 ± 0.3 | 184.1 ± 0.3 | 211.3 ± 0.3 | 237.8 ± 0.4 | 288.3 ± 0.4 | 131 ± 0.3 | 186.3 ± 0.3 | 213.6 ± 0.3 | 240.5 ± 0.4 | 291.8 ± 0.4 | 132.9 ± 0.3 | 189 ± 0.3 | 216.5 ± 0.3 | 243.7 ± 0.4 | molar heat capacity at constant pressure ([2]; 323.15 K, x1 = 0.8): 295.7 ± 0.4 J/K/mol; molar heat capacity at constant pressure ([2]; 333.15 K, x1 = 0.2): 135.1 ± 0.3 J/K/mol; molar heat capacity at constant pressure ([2]; 333.15 K, x1 = 0.4): 192.1 ± 0.3 J/K/mol; molar heat capacity at constant pressure ([2]; 333.15 K, x1 = 0.5): 219.8 ± 0.3 J/K/mol; molar heat capacity at constant pressure ([2]; 333.15 K, x1 = 0.6): 249.7 ± 0.4 J/K/mol; molar heat capacity at constant pressure ([2]; 333.15 K, x1 = 0.8): 300.3 ± 0.4 J/K/mol; molar heat capacity at constant pressure ([2]; 343.15 K, x1 = 0.2): 137.2 ± 0.3 J/K/mol; molar heat capacity at constant pressure ([2]; 343.15 K, x1 = 0.4): 195.2 ± 0.3 J/K/mol; molar heat capacity at constant pressure ([2]; 343.15 K, x1 = 0.5): 223.4 ± 0.4 J/K/mol; molar heat capacity at constant pressure ([2]; 343.15 K, x1 = 0.6): 251.8 ± 0.4 J/K/mol; molar heat capacity at constant pressure ([2]; 343.15 K, x1 = 0.8): 306 ± 0.4 J/K/mol; molar heat capacity at constant pressure ([2]; 353.15 K, x1 = 0.2): 139.7 ± 0.3 J/K/mol; molar heat capacity at constant pressure ([2]; 353.15 K, x1 = 0.4): 198.7 ± 0.3 J/K/mol; molar heat capacity at constant pressure ([2]; 353.15 K, x1 = 0.5): 227.3 ± 0.4 J/K/mol; molar heat capacity at constant pressure ([2]; 353.15 K, x1 = 0.6): 256.1 ± 0.4 J/K/mol; molar heat capacity at constant pressure ([2]; 353.15 K, x1 = 0.8): 311.3 ± 0.4 J/K/mol
